Values quoted from earlier work in US20240293300A1, “SKIN PENETRATION COSMETIC MATERIAL, AND SKIN PENETRATION COSMETIC MATERIAL PRODUCTION METHOD” (SHISEIDO COMPANY, LTD., priority 2021, published 2024).
Where a SMILES comes first, the peptide text is derived from it.

conditions: 1-octanol/water partition coefficient

| Molecule | Log P |
| --- | --- |
| NCC(=O)NCC(=O)O [glycylglycine] (H-Gly-Gly-OH) | −2.3 |
| N[C@@H](CCC(=O)O)C(=O)O [glutamic acid] | −3.7 |
| piperidine propionic acid | −2.06 |
| Cc1cc(C)nc(-n2nc(C)cc2C)n1.Cl [compound a, 2-(3,5-dimethylpyrazol-1-yl)-4,6-dimethyl pyrimidine hydrochloride] | 1.36 |
